Laboratory results as given in the supplement of paper PMC10307832.

Columns and labels:
Assay in all cases: relative viability (nuclei count vs DMSO), 5 days (fraction); higher = more cells survive
NCI-H1915 = test system: NCI-H1915
In short: (§1)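 Relative viability was taken as the ratio of nuclei in treated wells to nuclei in vehicle wells. Lung cancer cell lines in 1536-well plates received compounds by pin tool one day after seeding, either one drug alone or a fixed anchor-drug dose plus five library-drug doses (not always all listed) in √10 steps. Nuclei were counted on 4× images after 5 days of treatment, and values are medians of duplicate plates.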

NCI-H1793 = test system: NCI-H1793
In short: as §1

LK-2 = test system: LK-2
In short: as §1

SK-MES-1 = test system: SK-MES-1
In short: as §1

SK-LU-1 = test system: SK-LU-1
In short: as §1

NCI-H2087 = test system: NCI-H2087
In short: as §1

NCI-H1437 = test system: NCI-H1437
In short: as §1

EMC-BAC-2 = test system: EMC-BAC-2
In short: as §1

NCI-H1755 = test system: NCI-H1755
In short: as §1

H3255 = test system: H3255
In short: as §1

NCI-H1651 = test system: NCI-H1651
In short: as §1

LXF-289 = test system: LXF-289
In short: as §1

NCI-H2085 = test system: NCI-H2085
In short: as §1

CAL-12T = test system: CAL-12T
In short: as §1

COR-L 105 = test system: COR-L 105
In short: as §1

EKVX = test system: EKVX
In short: as §1

NCI-H661 = test system: NCI-H661
In short: as §1

PC-3 [JPC-3] = test system: PC-3 [JPC-3]
In short: as §1

LC-2-ad = test system: LC-2-ad
In short: as §1

NCI-H2228 = test system: NCI-H2228
In short: as §1

NCI-H1395 = test system: NCI-H1395
In short: as §1

NCI-H2347 = test system: NCI-H2347
In short: as §1

NCI-H1944 = test system: NCI-H1944
In short: as §1

O=c1[nH]c2ccccc2n1C1CCN(CCCC(c2ccc(F)cc2)c2ccc(F)cc2)CC1 [Pimozide] + CCNC(=O)c1noc(-c2cc(C(C)C)c(O)cc2O)c1-c1ccc(CN2CCOCC2)cc1 [Luminespib] (partner 0.01 µM)
relative viability (NCI-H1915; first compound 0.08 µM): 0.807 | relative viability (NCI-H1915; first compound 0.253 µM): 0.8 | relative viability (NCI-H1915; first compound 0.8 µM): 0.714 | relative viability (NCI-H1915; first compound 2.53 µM): 0.666 | relative viability (NCI-H1915; first compound 8 µM): 0.782 | relative viability (NCI-H1793; first compound 0.253 µM): 0.166 | relative viability (NCI-H1793; first compound 0.8 µM): 0.207 | relative viability (NCI-H1793; first compound 2.53 µM): 0.169 | relative viability (NCI-H1793; first compound 8 µM): 0.149 | relative viability (LK-2; first compound 0.08 µM): 0.18 | relative viability (LK-2; first compound 0.253 µM): 0.165 | relative viability (LK-2; first compound 2.53 µM): 0.18 | relative viability (LK-2; first compound 8 µM): 0.188 | relative viability (SK-MES-1; first compound 0.08 µM): 0.859 | relative viability (SK-MES-1; first compound 0.253 µM): 0.766 | relative viability (SK-MES-1; first compound 0.8 µM): 0.702 | relative viability (SK-MES-1; first compound 2.53 µM): 0.815 | relative viability (SK-MES-1; first compound 8 µM): 0.596 | relative viability (SK-LU-1; first compound 0.08 µM): 0.219 | relative viability (SK-LU-1; first compound 0.253 µM): 0.197 | relative viability (SK-LU-1; first compound 0.8 µM): 0.206 | relative viability (SK-LU-1; first compound 2.53 µM): 0.183 | relative viability (SK-LU-1; first compound 8 µM): 0.206 | relative viability (NCI-H2087; first compound 0.08 µM): 0.192 | relative viability (NCI-H2087; first compound 0.253 µM): 0.205 | relative viability (NCI-H2087; first compound 2.53 µM): 0.171 | relative viability (NCI-H2087; first compound 8 µM): 0.228 | relative viability (NCI-H1437; first compound 0.08 µM): 1.13 | relative viability (NCI-H1437; first compound 0.253 µM): 1.09 | relative viability (NCI-H1437; first compound 0.8 µM): 1.12 | relative viability (NCI-H1437; first compound 2.53 µM): 0.988 | relative viability (NCI-H1437; first compound 8 µM): 0.922 | relative viability (EMC-BAC-2; first compound 0.08 µM): 1.13 | relative viability (EMC-BAC-2; first compound 0.253 µM): 1.1 | relative viability (EMC-BAC-2; first compound 0.8 µM): 1.18 | relative viability (EMC-BAC-2; first compound 2.53 µM): 1.18 | relative viability (EMC-BAC-2; first compound 8 µM): 1.16 | relative viability (NCI-H1755; first compound 0.08 µM): 0.433 | relative viability (NCI-H1755; first compound 0.253 µM): 0.418 | relative viability (NCI-H1755; first compound 0.8 µM): 0.373 | relative viability (NCI-H1755; first compound 2.53 µM): 0.526 | relative viability (NCI-H1755; first compound 8 µM): 0.476 | relative viability (H3255; first compound 0.253 µM): 0.926 | relative viability (H3255; first compound 0.8 µM): 0.684 | relative viability (H3255; first compound 2.53 µM): 0.883 | relative viability (H3255; first compound 8 µM): 0.799 | relative viability (NCI-H1651; first compound 0.08 µM): 0.91 | relative viability (NCI-H1651; first compound 0.253 µM): 0.756 | relative viability (NCI-H1651; first compound 0.8 µM): 0.696 | relative viability (NCI-H1651; first compound 2.53 µM): 0.867 | relative viability (NCI-H1651; first compound 8 µM): 0.807 | relative viability (LXF-289; first compound 0.08 µM): 0.642 | relative viability (LXF-289; first compound 0.253 µM): 0.634 | relative viability (LXF-289; first compound 0.8 µM): 0.702 | relative viability (LXF-289; first compound 2.53 µM): 0.664 | relative viability (LXF-289; first compound 8 µM): 0.632 | relative viability (NCI-H2085; first compound 0.08 µM): 0.515 | relative viability (NCI-H2085; first compound 0.253 µM): 0.485 | relative viability (NCI-H2085; first compound 0.8 µM): 0.4 | relative viability (NCI-H2085; first compound 2.53 µM): 0.496 | relative viability (NCI-H2085; first compound 8 µM): 0.322 | relative viability (CAL-12T; first compound 0.08 µM): 0.305 | relative viability (CAL-12T; first compound 0.253 µM): 0.408 | relative viability (CAL-12T; first compound 0.8 µM): 0.186 | relative viability (CAL-12T; first compound 2.53 µM): 0.514 | relative viability (CAL-12T; first compound 8 µM): 0.168 | relative viability (COR-L 105; first compound 0.253 µM): 0.885 | relative viability (COR-L 105; first compound 0.8 µM): 0.631 | relative viability (COR-L 105; first compound 2.53 µM): 0.879 | relative viability (COR-L 105; first compound 8 µM): 0.687 | relative viability (EKVX; first compound 0.08 µM): 0.699 | relative viability (EKVX; first compound 0.253 µM): 0.86 | relative viability (EKVX; first compound 0.8 µM): 0.807 | relative viability (EKVX; first compound 2.53 µM): 0.909 | relative viability (EKVX; first compound 8 µM): 0.802 | relative viability (NCI-H661; first compound 0.08 µM): 0.929 | relative viability (NCI-H661; first compound 0.253 µM): 0.879 | relative viability (NCI-H661; first compound 0.8 µM): 0.887 | relative viability (NCI-H661; first compound 2.53 µM): 0.878 | relative viability (NCI-H661; first compound 8 µM): 0.896 | relative viability (PC-3 [JPC-3]; first compound 0.08 µM): 0.402 | relative viability (PC-3 [JPC-3]; first compound 0.253 µM): 0.714 | relative viability (PC-3 [JPC-3]; first compound 0.8 µM): 0.699 | relative viability (PC-3 [JPC-3]; first compound 2.53 µM): 0.723 | relative viability (PC-3 [JPC-3]; first compound 8 µM): 0.599 | relative viability (LC-2-ad; first compound 0.08 µM): 1.1 | relative viability (LC-2-ad; first compound 0.253 µM): 0.969 | relative viability (LC-2-ad; first compound 0.8 µM): 0.935 | relative viability (LC-2-ad; first compound 2.53 µM): 0.985 | relative viability (LC-2-ad; first compound 8 µM): 0.993 | relative viability (NCI-H2228; first compound 0.08 µM): 0.116 | relative viability (NCI-H2228; first compound 0.253 µM): 0.149 | relative viability (NCI-H2228; first compound 0.8 µM): 0.152 | relative viability (NCI-H2228; first compound 2.53 µM): 0.18 | relative viability (NCI-H2228; first compound 8 µM): 0.122 | relative viability (NCI-H1395; first compound 0.08 µM): 0.846 | relative viability (NCI-H1395; first compound 0.253 µM): 0.595 | relative viability (NCI-H1395; first compound 0.8 µM): 0.704 | relative viability (NCI-H1395; first compound 2.53 µM): 0.927 | relative viability (NCI-H1395; first compound 8 µM): 0.683 | relative viability (NCI-H2347; first compound 0.253 µM): 0.3 | relative viability (NCI-H2347; first compound 0.8 µM): 0.374 | relative viability (NCI-H2347; first compound 2.53 µM): 0.582 | relative viability (NCI-H2347; first compound 8 µM): 0.266 | relative viability (NCI-H1944; first compound 0.08 µM): 0.634 | relative viability (NCI-H1944; first compound 0.253 µM): 0.665 | relative viability (NCI-H1944; first compound 0.8 µM): 0.644 | relative viability (NCI-H1944; first compound 2.53 µM): 0.668 | relative viability (NCI-H1944; first compound 8 µM): 0.719
